Earlier results as cited in patent publication US20140255503A1, “PHARMACEUTICAL COMPOSITION OF OMEPRAZOLE” (LABORATORIOS DEL DR. ESTEVE, S.A., priority 2011, published 2014).

Assays:
[1] = not given; remark: listed apart in the source

Solubility in acetone (acetone): slightly soluble | Solubility in ethanol (ethanol): freely soluble | Solubility in isopropanol (isopropanol): slightly soluble | Solubility in methanol (methanol): freely soluble | Solubility in water (water): very slightly soluble | Stability in acid media ([1]; acid media): rapidly degraded | Stability under alkaline conditions ([1]; alkaline conditions): acceptable stability
Compound: COc1ccc2[nH]c([S+]([O-])Cc3ncc(C)c(OC)c3C)nc2c1 (stereo not shown) [Omeprazole, 5-methoxy-2-(4-methoxy-3,5-dimethylpyridin-2-ylmethylsulfinyl)-1H-benzimidazole]
